Results on 21 substances are retold here after US8039585B2, “Therapeutic administration of the scrambled anti-angiogenic peptide C16Y” (The United States of America as represented by the …, priority 2004, dated 2011).

Ends that are not written are not given here. Bounds are passed on as bounds.

For data set [1], the system named is C16-induced angiogenesis in the chick CAM. The experiment in a line: CAM assay, C16-induced angiogenesis. In kind it is in vivo. On the procedure:
FIG. 4: Inhibition of C16-induced angiogenesis by C16Y. 0.5 μg of angiogenic stimulator (C16 peptide) and varying concentrations of either C16S or C16Y peptides were applied to 10-day-old embryonated eggs in 5 μl of water. After 3 days, microphotographs were taken of the eggs to determine angiogenesis levels. Negative control eggs were treated with water only (panel a), while positive control eggs were treated with bFGF only (not shown). As expected, C16 peptide administered alone stimulated angiogenesis (panel d). […] When the amount of inhibitor peptide was lowered to 0.05 μg, C16Y peptide continued to inhibit angiogenesis (panel f), while C16S peptide had no effect (panel c).
The CAM assay was performed using 10-day-old embryonated eggs (CBT, Charlestown, Md.) as described previously (Gho 1999). On embryonal day 3, approximately 4 ml of ovalbumin was removed from each egg. After opening windows on embryonal day 10, the angiogenic stimulus (C16) and test competitor peptides in 5 μl of distilled water were applied to the CAM after drying on 13-mm diameter quartered plastic coverslips (Thermanox; Nalge, NUNC International, Naperville, Ill.). Three days later, the eggs were scored for a positive response and photographed. The positive control was bFGF, and the negative control was the vehicle water. Experiments were repeated twice using a minimum of 11 eggs for each data point.

Data set [2] deals with HUVECs. The experiment in a line: Endothelial cell tube-forming assay on Matrigel. In kind it is cell-based, human. On the set-up: key to Disruption of tube formation / Activity (tube formation, truncated C16Y peptides): +: tubes slightly affected; ++: tubes moderately affected; +++: tubes disrupted; ++++: tubes completely disrupted; −: tubes resemble control. To be noted: for Disruption of tube formation: 16 hours; for Activity (tube formation, truncated C16Y peptides): truncated versions of C16Y, concentration not given. How it is done: FIG. 3: Disruption of endothelial cell tube formation by C16Y peptide. 48-well plates were coated with 200 μl of Matrigel per well. Each well was treated with RPMI containing 24,000 human umbilical vein endothelial cells (HUVECS) and 100 mg/L endothelial cell growth factor in the presence of 10-75 μg/ml of C16 or scrambled C16 peptide for 16 hours. Control wells contained medium only. Cells were fixed and stained, and tube formation was scored by a blinded observer.
Tube-forming assays were performed as described previously (Ponce 2001). 48-well plates were coated with 200 μl/well of Matrigel (Gho 2001; Kubota 1988), a basement membrane matrix. HUVECs (24,000 cells/well) were plated in RPMI 1640 containing 10% bovine calf serum, defined and supplemented (HyClone Laboratories, Inc., Logan, Utah), along with 100 mg/liter of endothelial cell growth factor (Collaborative Biomedical). C16 or scrambled C16 peptides were added at concentrations ranging from 10-75 μg/ml. Control wells contained medium only. After 16 hours, cells were fixed and stained with Diff-Quick fixative (methanol) and solution II (6.25% (w/v) each of azure A and methylene blue) (Dade A G, Dudingen, Switzerland), and tube formation was scored by a blinded observer. Each peptide was tested at least in triplicate, and the assays were repeated a minimum of three times.
Tube formation assays were repeated using truncated versions of the C16Y peptide to determine the minimal active sequence of the peptide. The carboxyl end of C16Y was not necessary for activity, whereas the amino terminal aspartic acid was required. The minimal active sequence for the C16Y peptide is shown in SEQ ID NO: 2. Each of the peptides containing at least this 8 amino acid sequence (SEQ ID NOs: 1-5) inhibited tube formation.

In data set [3] the test system is bFGF-induced angiogenesis. The experiment in a line: CAM assay, bFGF-induced angiogenesis. In kind it is in vivo, chick. As to conditions: 50 ng bFGF + 0.05 μg peptide. On the procedure: FIG. 5: Inhibition of bFGF-induced angiogenesis by C16Y. 50 ng of angiogenic stimulator (bFGF) and varying concentrations of either C16S or C16Y peptides were applied to 10-day old embryonated eggs in 5 μl of water, and CAMs were analyzed for the presence or absence of angiogenesis.
50 ng of angiogenic stimulator (bFGF) and varying concentrations of either C16S or C16Y peptides were applied to 10-day old embryonated eggs in 5 μl of water, and CAMs were analyzed after 3 days for the presence or absence of angiogenesis.

The subject of data set [4] is tumor growth and lung colonization. As to conditions: Fridman 1990; cited from earlier work.
Data set [5] relates to human umbilical vein endothelial cells (HUVECs). In words: Endothelial cell adhesion to peptide-coated plates. As to conditions: 0-5 μg coated, 1.5 hours. In kind it is cell-based. How it is done: FIG. 1: Endothelial cell adhesion by C16 and scrambled C16 peptides. 96-well plates were coated with either laminin-1 (0.5 μg), C16 peptide (0-5 μg), or scrambled C16 peptide (0-5 μg). Each well was rinsed with PBS, blocked with BSA, rinsed again with PBS, and then treated with 0.1 ml of RPMI containing 35,000 human umbilical vein endothelial cells (HUVECs) for 1.5 hours at 37° C. Unbound cells were decanted, and attached cells were stained with crystal violet and quantified by measuring their absorbance at 600 nm. Cells adhered to C16, C16S, and C16Y peptides. More cells adhered to C16Y than to any other peptide at all concentrations tested. Bars represent ±SD.
Endothelial cell adhesion assays were performed on 96-well plates coated overnight with either laminin-1 (0.5 μg) or synthetic laminin peptides C16, C16S, C16J, C16L, or C16Y (0-5 μg) as described previously (Malinda 1999). Wells were rinsed with PBS, blocked with 2 mg/ml of BSA, and rinsed again with PBS. Cell adhesion was performed using 0.1 ml of RPMI 1640 containing 35,000 HUVECs. After a 1.5-hour incubation period at 37° C., unbound cells were decanted and attached cells were fixed and stained with 20% methanol/0.2% crystal violet. Dishes were extensively rinsed, and bound dye was solubilized in 2% SDS and quantitated at 600 nm. Assays were done in triplicate at least three times.

Data set [6] deals with endothelial cell attachment to laminin-1. The experiment in a line: Competition assay: block of endothelial cell adhesion to laminin-1. In kind it is cell-based, human. On the procedure: FIG. 2: Ability of C16 and scrambled C16 peptides to block laminin-1 endothelial cell adhesion. 96-well plates were coated with laminin-1 (0.5 μg) in the presence of competing C16 or scrambled C16 peptides (0-100 μg/ml). Each wells was treated with 0.1 ml of RPMI containing 35,000 human umbilical vein endothelial cells (HUVECs) for 1.5 hours at 37° C. Unbound cells were decanted, and attached cells were stained with crystal violet and quantified by measuring their absorbance at 600 nm. […] Bars represent ±SD.
Competition experiments were done using 96-well plates coated with laminin-1 (0.5 μg) in the presence of 0-100 μg/ml of competing C16, C16S, C16J, C16L, or C16Y synthetic laminin peptide as specified. Control wells were coated with BSA only. Wells were contacted with 0.1 ml of RPMI 1640 containing 35,000 HUVECs. After a 1.5-hour incubation at 37° C., unbound cells were decanted and attached cells were fixed and stained with 20% methanol/0.2% crystal violet. Dishes were extensively rinsed, and bound dye was solubilized in 2% SDS and quantitated at 600 nm. Assays were done in triplicate at least three times.

A short description of data set [7]: Toxicity statement (no method described).

Take “C16S: scrambled peptide of C16, created as a negative control, with antagonist activity (KAFDITYVRLKF; Scrambled version of C16 peptide) [Peptide C16S, reference compound]”: the “Inhibitory effect on angiogenesis” value in data set [1] (0.5 μg C16 + 0.05 μg inhibitor peptide) was “no longer generated an inhibitory effect”. For the same substance, the Reduction in angiogenesis in data set [1] (0.5 μg C16 + 0.1 μg inhibitor peptide) is 52%; in data set [1] (0.5 μg C16 + 0.2 μg inhibitor peptide) it was 63%. The “Angiogenesis with peptide administered alone” value in data set [1] (peptide alone (C16: 0.5 μg)) is reported as “neither C16Y (FIG. 4, panel e) nor C16S (data not shown) administered alone stimulated angiogenesis”. The “Dose at which tube formation is disrupted (lowest active)” value in data set [2] (10-75 μg/ml tested) was found to be 50 µg/mL. Besides, the “Disruption of tube formation” value in data set [2] (peptide concentration 10 μg/ml) is “−”; in data set [2] (peptide concentration 25 μg/ml) it was “−”; in data set [2] (peptide concentration 50 μg/ml) it was “+++”; in data set [2] (peptide concentration 75 μg/ml) it was “+++”. For the same substance, in data set [3], the “Inhibition of angiogenesis” value is on record as “no ability to inhibit angiogenesis”.
Consider YIGSR, for which, in data set [4], the “Activity lower than that of C16Y” value is about 10 fold.
As for DRKL, in data set [2], the “Activity (tube formation, truncated C16Y peptides)” value is given as “−”.
With “C16L: scrambled peptide of C16 (LTFRAKVYFIKD-NH2) [Peptide C16L]”, the “Effect on endothelial tube formation” value in data set [2] is “no activity at lower doses and only slight tube disruption at higher concentrations”. For the same substance, the “Disruption of tube formation” value in data set [2] (peptide concentration 10 μg/ml) is “−”; in data set [2] (peptide concentration 25 μg/ml), “−”; in data set [2] (peptide concentration 50 μg/ml), “+”; in data set [2] (peptide concentration 75 μg/ml) it was “++”. For the same substance, the “Endothelial cell adhesion to coated peptide” value in data set [5] was “did not attach”. The “Dose showing some inhibition of attachment to laminin-1” value in data set [6] was over 75 µg/mL.
In the case of KLFAVYIKYR [truncated version of C16Y], in data set [2], the “Activity (tube formation, truncated C16Y peptides)” value is recorded as “−”.
In the case of “C16J: scrambled peptide of C16 (IKDYLTFARVKF-NH2) [Peptide C16J]”, in data set [2], the “Effect on endothelial tube formation” value was “no activity at lower doses and only slight tube disruption at higher concentrations”. The “Disruption of tube formation” value in data set [2] (peptide concentration 10 μg/ml), in data set [2] (peptide concentration 25 μg/ml), in data set [2] (peptide concentration 50 μg/ml) and in data set [2] (peptide concentration 75 μg/ml) was “−” in each case. Further, in data set [5], the “Endothelial cell adhesion to coated peptide” value is on record as “only weakly bound”. Moreover, the “Inhibitory activity on laminin-1 cell adhesion” value in data set [6] (0-100 μg/ml competing peptide) is listed as “little activity at all of the doses tested”.
As for AVYIKYR [truncated version of C16Y], the “Activity (tube formation, truncated C16Y peptides)” value in data set [2] is listed as “−”.
Same read-out and setting: to DFKLFAVYIKY [truncated version of C16Y] belongs “++”.
For “DFKLFAVYIKYR-NH2 [Peptide C16Y, DFKLFAVYIKYR]”, the “Toxicity” value in data set [7] was “not toxic”.
As to DFKLFA, in data set [2], the “Activity (tube formation, truncated C16Y peptides)” value was “−”.
In the case of FKLFAVYIKYR [truncated version of C16Y], in data set [2], the “Activity (tube formation, truncated C16Y peptides)” value is “−”.
Still for that read-out and setting: next, DFKLFAVY (DFKLFAVY-NH2): “++”; YIKYR: “−”.
The same measure, in the same setting: to DFKLFAVYIK [truncated version of C16Y] belongs “++”.
Consider “SEQ ID NO: 6: peptide having the fibronectin sequence (residues 1023-1033) of c-elegans (DYKYFAVYYR) [reference compound]”, for which the “Effect on endothelial tube formation” value in data set [2] is reported as “no ability to block endothelial tube formation”.
On to VYIKYR, for which the “Activity (tube formation, truncated C16Y peptides)” value in data set [2] is reported as “−”.
Turning to DFKLF, in data set [2], the “Activity (tube formation, truncated C16Y peptides)” value is listed as “−”.
Still for that read-out and setting: next, DFKLFAV [truncated version of C16Y]: “−”; LFAVYIKYR [truncated version of C16Y]: “−”; DFKLFAVYI [truncated version of C16Y]: “++”.
On the same count and under the same terms, next, FAVYIKYR [truncated version of C16Y]: “−”.
